According to US12077503B2, “Substituted cyclic amides and their use as herbicides” (FMC CORPORATION, priority 2015, dated 2024):
Like-named read-outs stand apart in the source and are kept apart here.

Key:
Assay type in all cases: in vivo
[1] = test system: wheat (Triticum aestivum); experiment: Test A postemergence; settings: Triticum aestivum, post-emergence, 240 h, 125 g ai/ha
In short: (§1)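 Compounds were formulated in a non-phytotoxic solvent mixture with surfactant and applied as a preemergence directed soil spray after seeding, or sprayed postemergence over plants 2 to 10 cm tall at the one- to two-leaf stage. Evaluation after about 10 d compared treated with untreated controls, using a scale from 0 (no effect) to 100 (complete control).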

[2] = test system: ryegrass, Italian (Italian ryegrass, Lolium multiflorum); experiment: Test A postemergence; settings: Lolium multiflorum, post-emergence, 240 h, 125 g ai/ha
In short: as §1

[3] = test system: Galium (catchweed bedstraw, Galium aparine); experiment: Test A postemergence; settings: Galium, post-emergence, 240 h; for pest or weed control at 125 g/ha: 125 g ai/ha
In short: as §1

[4] = test system: blackgrass (Alopecurus myosuroides); experiment: Test A postemergence; settings: Alopecurus myosuroides, post-emergence, 240 h, 125 g ai/ha, Postemergence; visual injury after approximately 10 d; 0 to 100 scale where 0 is no effect and 100 is complete control; read-out: Plant response rating, Blackgrass
In short: as §1

[5] = test system: ragweed (common ragweed, Ambrosia elatior); experiment: Test A postemergence; settings: Ambrosia artemisiifolia, post-emergence, 240 h, 125 g ai/ha
In short: as §1

corn (Zea mays) = experiment: Test A postemergence; settings: Zea mays, post-emergence, 240 h; for Corn plant response rating (crop injury, 0 = no effect, 100 = complete kill) at 125 g/ha: Postemergence, visual injury after approximately 10 d, 0 to 100 scale where 0 is no effect and 100 is complete control
In short: as §1

[6] = test system: pigweed (Amaranthus retroflexus); experiment: Test A postemergence; settings: Amaranthus retroflexus, post-emergence, 240 h, 125 g ai/ha
In short: as §1

[7] = test system: barnyardgrass (Echinochloa crus-galli); experiment: Test A postemergence; settings: Echinochloa crus-galli, post-emergence, 240 h; for pest or weed control at 125 g/ha: 125 g ai/ha
In short: as §1

[8] = test system: giant foxtail (Setaria faberii); experiment: Test A postemergence; settings: Setaria faberi, post-emergence, 240 h; for pest or weed control at 125 g/ha: 125 g ai/ha
In short: as §1

[9] = test system: pigweed (Amaranthus retroflexus); experiment: Test A preemergence; settings: Amaranthus retroflexus, pre-emergence, 240 h; for pest or weed control at 125 g/ha: 125 g ai/ha, Preemergence, visual injury rating after approximately 10 d, read-out: Pigweed plant response rating (0 to 100 scale, 0 is no effect, 100 is complete control); for pest or weed control at 500 g/ha: 500 g ai/ha, preemergence, visual injury rating about 10 d after treatment, 0 to 100 scale (0 no effect, 100 complete control), read-out: Pigweed plant response rating
rice (Oryra sativa) = experiment: Test B flooded paddy test; settings: Oryza sativa, Flood, 250 g ai/ha, read-out: Rice plant response rating
In short: (§2)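 Evaluation by eye, against controls, occurred 13–15 d post-treatment in a greenhouse, using a 0 (no effect) to 100 (complete control) scale. Application was into the paddy water, 3 cm deep over the soil, on 2-leaf plants.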

[10] = test system: sedge, umbrella (small-flower umbrella sedge, Cyperus difformis); experiment: Test B flooded paddy test; settings: Cyperus difformis, 250 g ai/ha, Flood, read-out: Sedge, Umbrella plant response rating
In short: as §2

[11] = test system: ducksalad (Heteranthera limosa); experiment: Test B flooded paddy test; settings: Heteranthera limosa, Flood, 250 g ai/ha, read-out: Ducksalad plant response rating
In short: as §2

[12] = test system: barnyardgrass (Echinochloa crus-galli); experiment: Test B flooded paddy test; settings: Echinochloa crus-galli, Flood, 250 g ai/ha, read-out: Barnyardgrass plant response rating
In short: as §2

Kochia (Kochia scoparia) = experiment: Test A postemergence; settings: Bassia scoparia, post-emergence, 240 h, postemergence, approx. 10 d
In short: as §1

[13] = Postemergence, visual injury after approximately 10 d, 0 to 100 scale where 0 is no effect and 100 is complete control, read-out: Plant response rating, Wheat
[14] = Postemergence, visual injury after approximately 10 d, 0 to 100 scale where 0 is no effect and 100 is complete control, read-out: Plant response rating, Ryegrass, Italian
[15] = Postemergence, visual injury after approximately 10 d, 0 to 100 scale where 0 is no effect and 100 is complete control, read-out: Plant response rating, Galium
[16] = Postemergence, visual injury after approximately 10 d, 0 to 100 scale where 0 is no effect and 100 is complete control, read-out: Plant response rating, Ragweed
[17] = Postemergence, visual injury after approximately 10 d, 0 to 100 scale where 0 is no effect and 100 is complete control, read-out: Plant response rating, Pigweed
[18] = Postemergence, visual injury after approximately 10 d, 0 to 100 scale where 0 is no effect and 100 is complete control, read-out: Plant response rating, Barnyardgrass
[19] = Postemergence, visual injury after approximately 10 d, 0 to 100 scale where 0 is no effect and 100 is complete control, read-out: Plant response rating, Foxtail, Giant
[20] = scale of 0 to 100 where 0 is no effect and 100 is complete control
[21] = 0 to 100 scale where 0 is no effect and 100 is complete control

Row | Compound | plant injury at 125 g/ha [1, 13] [%] | pest or weed control at 125 g/ha [2, 14] [%] | pest or weed control at 125 g/ha [3, 15] [%] | pest or weed control at 125 g/ha [4] [%] | pest or weed control at 125 g/ha [5, 16] [%] | Corn plant response rating (crop injury, 0 = no effect, 100 = complete kill) at 125 g/ha (corn (Zea mays); 125 g ai/ha) [%] | pest or weed control at 125 g/ha [6, 17] [%] | pest or weed control at 125 g/ha [7, 18] [%] | pest or weed control at 125 g/ha [8, 19] [%] | pest or weed control at 125 g/ha [9] [%] | pest or weed control at 500 g/ha [9] [%] | pest or weed control at 250 g/ha (rice (Oryra sativa); [20]) [%] | pest or weed control at 250 g/ha [10, 21] [%] | pest or weed control at 250 g/ha [11, 20] [%] | pest or weed control at 250 g/ha [12, 20] [%] | other results
1 | CN1C[C@H](c2cc(F)cc(F)c2)[C@@H](C(=O)Nc2cc(O)ccc2F)C1=O [Compound 992] | 0 | 0 | 0 | 0 | 0 | 0 | 0 | 0 | 0 | 0 | 0 | 0 | 0 | 0 | 0 | 
2 | Cc1cc([C@H]2CNC(=O)[C@@H]2C(=O)Nc2ccccc2Cl)ccc1C(F)(F)F [Compound 1044] |  |  |  |  |  |  |  |  |  | 0 | 30 |  | 0 |  |  | plant injury at 125 g/ha ([1]; postemergence, visual injury on 0 to 100 scale (0 no effect, 100 complete control), approx. 10 d, read-out: Wheat plant response rating): 0%; pest or weed control at 125 g/ha ([2]; postemergence, visual injury on 0 to 100 scale (0 no effect, 100 complete control), approx. 10 d, read-out: Ryegrass, Italian plant response rating): 0%; pest or weed control at 125 g/ha ([3]; postemergence, visual injury on 0 to 100 scale (0 no effect, 100 complete control), approx. 10 d, read-out: Galium plant response rating): 40%; pest or weed control at 500 g/ha ([3]; 500 g ai/ha, postemergence, visual injury, 0 to 100 scale (0 no effect, 100 complete control), approx. 10 d, read-out: Plant response rating, Galium): 60%; pest or weed control at 125 g/ha ([5]; postemergence, visual injury on 0 to 100 scale (0 no effect, 100 complete control), approx. 10 d, read-out: Ragweed plant response rating): 20%; pest or weed control at 125 g/ha (Kochia (Kochia scoparia); 125 g ai/ha, visual injury on 0 to 100 scale (0 no effect, 100 complete control), read-out: Kochia plant response rating): 0%; pest or weed control at 500 g/ha (Kochia (Kochia scoparia); 500 g ai/ha, visual injury, 0 to 100 scale (0 no effect, 100 complete control), read-out: Plant response rating, Kochia): 50%; plant injury at 125 g/ha (corn (Zea mays); 125 g ai/ha, postemergence, visual injury on 0 to 100 scale (0 no effect, 100 complete control), approx. 10 d, read-out: Corn plant response rating): 0%; Corn plant response rating (crop injury, 0 = no effect, 100 = complete kill) at 500 g/ha (corn (Zea mays); 500 g ai/ha, postemergence, visual injury, 0 to 100 scale (0 no effect, 100 complete control), approx. 10 d): 50%; pest or weed control at 125 g/ha ([6]; postemergence, visual injury on 0 to 100 scale (0 no effect, 100 complete control), approx. 10 d, read-out: Pigweed plant response rating): 30%; pest or weed control at 125 g/ha ([7]; postemergence, visual injury on 0 to 100 scale (0 no effect, 100 complete control), approx. 10 d, read-out: Barnyardgrass plant response rating): 70%; pest or weed control at 500 g/ha ([7]; 500 g ai/ha, postemergence, visual injury, 0 to 100 scale (0 no effect, 100 complete control), approx. 10 d, read-out: Plant response rating, Barnyardgrass): 80%; pest or weed control at 125 g/ha ([8]; postemergence, visual injury on 0 to 100 scale (0 no effect, 100 complete control), approx. 10 d, read-out: Foxtail, Giant plant response rating): 60%; pest or weed control at 500 g/ha ([8]; 500 g ai/ha, postemergence, visual injury, 0 to 100 scale (0 no effect, 100 complete control), approx. 10 d, read-out: Plant response rating, Foxtail, Giant): 90%; pest or weed control at 250 g/ha (rice (Oryra sativa); [21]): 0%; pest or weed control at 250 g/ha [11, 21]: 0%; pest or weed control at 250 g/ha [12, 21]: 0%
3 | Cc1ccc([C@H]2CCNC(=O)[C@@H]2C(=O)Nc2cccc(F)c2F)cc1 [Compound 973] | 0 | 20 | 50 | 60 | 0 | 0 | 0 | 30 | 70 | 0 | 0 | 0 |  | 100 | 0 | pest or weed control at 250 g/ha [10, 20]: 0%
4 | COc1ccc([C@H]2CN(C)C(=O)[C@@H]2C(=O)Nc2ccccc2SC)cc1C(F)(F)F [Compound 991] | 0 | 0 | 0 | 0 | 0 | 0 | 0 | 30 | 80 | 60 | 50 | 15 | 0 | 40 | 0 | 
